Test results reported in patent US20250032580A1, “USE OF ADNF POLYPEPTIDES IN THERAPY” (RAMOT AT TEL-AVIV UNIVERSITY LTD., priority 2021, published 2025).

Columns and labels:
male Tyr mice = assay: Visual evoked potentials (VEP); format: in vivo, mouse; parameters: key to NAP efficacy: visual evoked potential: corrections by NAP treatment (+)
Procedure: VEP—5.72±0.52-week-old male mice were used for VEP measurements. Animals were treated for 3 days with 0.1 ml S.C saline, recorded, and then followed by 4 daily S.C doses of either 1 μg NAP (in 0.1 ml saline) or 0.1 ml saline followed by another VEP recording.

[1] = system: differentiated N1E-115 cells; assay: Live imaging of EB3 comet-like structures (MT dynamics); format: cell-based, mouse
Procedure: Cell culture—Mouse neuroblastoma NIE-115 cells were maintained in Dulbecco's modified Eagle's medium, 10% fetal bovine serum, 2 mM glutamine and 100 U ml—1 penicillin, […] ml—1 streptomycin (Biological Industries, Beit Haemek, Israel). The cells were incubated in 95% air/5% CO2 in a humidified incubator at 37° C.
Cell differentiation and co-transfection of overexpression plasmids—Cultured NIE-115 cells were plated on 35 mm dishes (81156, 60μ-Dish, Ibidi, Martinsried, Germany) at a concentration of 1.25×10^4 cells per dish and then were differentiated with reduced fetal bovine serum (2%) and DMSO (1.25%) containing medium for 5 days before transfection. 48 hrs before experiments N1E-115 cells were co-transfected with 1 μg EB3-RFP or mCherry-Tau (3R) plasmid with or without 2 μg of plasmids, coding to GFP conjugated to full-length human ADNP, or ADNP carried mutations. 1:3 ratios between total amount of transfected DNA and transfection reagent were used according to manufacture guidance (Lipofectamine2000, Thermo Fisher Scientific, Waltham, MA, USA) in all subsequent experiments.
Live Imaging—48 hrs after transfection, differentiated NIE-115 cells (expressing EB3-RFP with or without GFP-conjugated to full-length ADNP or mutated ADNP) were incubated at 37° C. with a 5% CO2/95% air mixture in a thermostatic chamber placed on the stage of a Leica TCS SP5 confocal microscope (objective 100× (PL Apo) oil immersion, NA 1.4). Time-lapse images were automatically captured 3 sec during 1 min, using the Leica LAS AF software. After imaging all samples were also treated with NAP (SEQ ID NO: 2) or SKIP (SEQ ID NO: 21) in final concentrations of 10^−12 M, and after 4 hrs time-lapse imaging was done again under the same conditions. Data was collected and analyzed by Imaris software.
To evaluate the effect of ADNP truncated proteins on MT dynamics time-lapse imaging of EB3 comet-like structures formed by RFP-tagged EB3 proteins that bind to MT plus-ends was performed. Two parameters of EB3 activity were used to assess MT dynamics—track length and track speed of EB3 comets, which reflect the length of freshly growing MTs and the speed of MT assembly, respectively. Furthermore, the present inventors aimed to determine whether NAP (10^−12 M for 4 hrs) could prevent the deleterious effect of ADNP mutations.

BTBR mouse = assay: Social recognition test; format: in vivo; settings: BTBR idiopathic autism mouse, FIG. 14
Tyr mice = assay: RNA seq of mouse spleens; format: in vivo; parameters: key to NAP efficacy: gene expression patterns: corrections by NAP treatment (+)
Procedure: RNA seq—Total RNA was extracted from 14-week-old mouse spleens and sequenced using standard methods on NextSeq500 system (Illumina) as detailed. Data were analyzed as previously described (9).

Tyr-GFP mice = assay: Dendritic spine quantitation; format: in vivo, mouse; parameters: key to NAP efficacy: synaptic structural alterations: corrections by NAP treatment (+)
Procedure: Spine quantitation—For determination of dendritic spine morphology, the Tyr-GFP mouse model was used and generated as described(12). 1.5-2-month-old Tyr-GFP-mice were treated for 9 consecutive days with either intraperitoneal NAP injection (0.4 μg/0.1 ml saline) or with 0.1 ml saline. On day 9, mice were perfused, and brains were subjected to immunohistochemistry and imaging (12).

[2] = system: SHANK3 mouse model (InsG3680 mutation); assay: Open field behavior; format: in vivo; settings: intranasal, once daily, five days a week for a month
Procedure: To this end, mice with the ASD-linked InsG3680 mutation were used. Two behavioral assessments were performed on make mice: • 1) Open field behavior attesting to anxiety and depression (Open field behavioral assessment technology was previously described, e.g.); and • 2) Social recognition behavior, related to autistic traits (the social recognition test was previously described, e.g..
This surprising finding is of importance as there is a psychiatric illness and regression in individuals with Phelan-McDermid syndrome.

[3] = Tyr mouse, first symbol of cell
[4] = males and WT females, data not shown

`CC[C@H](C)[C@H](NC(=O)[C@H](CO)NC(=O)[C@@H](NC(=O)[C@@H]1CCCN1C(=O)[C@H](C)NC(=O)[C@@H](N)CC(N)=O)C(C)C)C(=O)N1CCC[C@H]1C(=O)N[C@@H](CCC(N)=O)C(=O)O` [NAP, NAPVSIPQ] was tested, and the “NAP efficacy: visual evoked potential” value (male Tyr mice; [3]) was “+/+”, the VEP traces (male Tyr mice; male Tyr mice, 4 consecutive daily doses) was “normalizing these effects” and the “Decrease of VEP P2 AUC” value (male Tyr mice; male Tyr mice, 4 daily s.c. doses of 1 μg NAP, 100, 300 and 3000 mcd) was 1.6-2.3 fold. The “VEP N2 AUC” value (male Tyr mice; male Tyr mice, 100, 300 and 3000 mcd) was “same significant change”, the “VEP P3 AUC” value (male Tyr mice; male Tyr mice, 300 and 3000 mcd) was “significant NAP effect” and the “Difference between effects of NAP and SKIP on EB3 track length and speed” value ([1]; 10^−12 M, 4 hrs) was “no significant differences”. For the same compound, the “Speed and track length of EB3 comets” value ([1]; cells expressing ADNP p.Glu830synfs*83, 10^−12 M, 4 hrs) was “significantly augmented”, the EB3 comet speed ([1]; cells expressing ADNP p.Lys408Valfs*31, 10^−12 M, 4 hrs) was “significantly augmented” and the “EB3 activity (track length and comet speed)” value ([1]; cells expressing ADNP p.Lys408Valfs*31 SDM, 10^−12 M, 4 hrs) was “recovered EB3 activity to the control level”. The “Speed and track length of EB3 comets” value ([1]; cells expressing ADNP p.Ser404*, 10^−12 M, 4 hrs) was “significantly augmented”, the “EB3 comet track length and speed” value ([1]; cells overexpressing full-length ADNP, 10^−12 M, 4 hrs) was “did not further influence” and the “EB3 track length and speed compared to non-treated control” value ([1]; no ADNP plasmid, 10^−12 M, 4 hrs) was “increased EB3 track length and speed”. The “MT activities in the face of all ADNP mutations” value ([1]; summary of results) was “normalized MT activities”, the “Effects on social recognition (preference of the mouse rather than the cup)” value (BTBR mouse) was “also observed” and the “Genotype/NAP effect on splenic gene expression” value (Tyr mice; Tyr mice, males vs females) was “very minor genotype/NAP effect on males, and a more comprehensive effect on females”. For the same compound, the “NAP efficacy: gene expression patterns” value (Tyr mice; [3]) was “+/+”, the “Number of RNA transcripts affected by the Tyr Adnp mutation, corrected by NAP treatment” value (Tyr mice; female spleens) was 89 and the “Number of RNA transcripts affected by the Tyr Adnp mutation, corrected by NAP treatment” value (Tyr mice; male spleens) was 13. The “NAP efficacy: synaptic structural alterations” value (Tyr-GFP mice; [3]) was “+/+”, the “Mushroom shaped spine density, motor cortex” value (Tyr-GFP mice; female Tyr mice) was “significantly affecting” and the “PSD95 volume in the hippocampus” value (Tyr-GFP mice; female Tyr mice) was “complete resolution”. The “Increase in motor cortex L5 layer spine density” value (Tyr-GFP mice; female Tyr mice, i.p. NAP, 9 days) was about 17%, the “Hippocampal total spines and subtypes” value (Tyr-GFP mice; females and WT males, data not shown) was “no genotype or treatment changes in females or treatment effect on WT males” and the “Increase in CA1 hippocampal dendritic spine density” value (Tyr-GFP mice; male Tyr mice, i.p. NAP 0.4 μg/0.1 ml saline, 9 days) was about 23%. For the same compound, the “Motor cortex spine density” value (Tyr-GFP mice; [4]) was “No genotype or treatment changes were observed in males and no treatment effect was found on WT females”, the “Motor cortex spine subtypes” value (Tyr-GFP mice; [4]) was “No NAP effect” and the “Cumulative duration in the center (open field)” value [2] was “significantly increased”.
